# Experimental data taken from patent US20260008818A1, “CYCLIC PEPTIDE OR SALT THEREOF, AND USES THEREOF” (FUJIFILM Corporation, priority 2023, published 2026).
# Bridge positions count the residues as written; N and C are the ends. Square brackets hold non-standard residues; d marks the D form. Ends that are not written are not given here. COCH2 = acetyl group that carries the bridge; hCys = N[C@@H](CCS)C(=O)O; Orn = NCCC[C@H](N)C(=O)O; Dab = NCC[C@H](N)C(=O)O; Dap = NC[C@H](N)C(=O)O
# Tested on: Recombinant Human FGFR1 alpha (IIIc) Fc Chimera Protein
# Assay: Binding affinity of enzymatically synthesized cyclic peptide to FGFR by ELISA
# Conditions: luminescence signal at reaction concentration 10 nmol/L, SEQ ID NO: 39 standardized to 1, enzyme synthesis product
# Procedure, shortened: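 Graded A–D from luminescence at 10 nmol/L peptide, expressed relative to SEQ ID NO: 39 after subtracting wells lacking receptor. Read-out used anti-Myc antibody (2 h, RT) with chemiluminescent substrate, following 3 h RT binding of peptide to immobilized FGFR1α(IIIc)-Fc, 5 ng per well.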
row,Molecule,Evaluation result of binding affinity to FGFR
1,40 (QCDVWYWLGHRVPFHPVK(COCH2)V; thioether 2-18 (inferred)) [compound 40],B (0.5 or more and less than 0.7)
2,218 (HCSYERLQFHGHEAPFRVK(COCH2)S; thioether 2-19 via Ac; not fully specified) [compound 218],A (0.7 or more)
3,81 (RCSYERLQFHGHEAPFRVKV; not fully specified; Description of Artificial Sequence: Cyclic peptide) [compound 81],A (0.7 or more)
4,298 (HCSYMRLQFHGHEAPFRVK(COCH2)V; thioether 2-19 (inferred)) [compound 298],B (0.5 or more and less than 0.7)
5,312 (HCVWERLIFLGHIAPFWVK(COCH2)R; thioether 2-19 (inferred)) [compound 312],C (0.1 or more and less than 0.5)
6,303 (HCSYERLQFMGHEAPFRVK(COCH2)V; thioether 2-19 (inferred)) [compound 303],A (0.7 or more)
7,70 (ICSYERLQFHGHEAPFRVK(COCH2)V; thioether 2-19 (inferred)) [compound 70],A (0.7 or more)
8,356 (ACWLRHIYQGHKAPFLIWSTK(COCH2)S; thioether 2-21) [compound 356],B (0.5 or more and less than 0.7)
9,179 (HCSYERLQFHGHIAPFRVK(COCH2)V; thioether 2-19 (inferred)) [compound 179],A (0.7 or more)
10,333 (HCVYERLIFHGHIAPFWVK(COCH2)V; thioether 2-19 (inferred)) [compound 333],A (0.7 or more)
11,106 (HCSYERLQFHWHEAPFRVK(COCH2)V; thioether 2-19 (inferred)) [compound 106],C (0.1 or more and less than 0.5)
12,321 (HCTWERLIFLGHVAPFWVK(COCH2)R; thioether 2-19 (inferred)) [compound 321],C (0.1 or more and less than 0.5)
13,316 (HCTWERLVFLGHIAPFWVK(COCH2)R; thioether 2-19 (inferred)) [compound 316],C (0.1 or more and less than 0.5)
14,116 (HCSYERLQFHGHEAQFRVK(COCH2)V; thioether 2-19 (inferred)) [compound 116],C (0.1 or more and less than 0.5)
15,342 (NCIPFWWQQHWWQYPVRVVK(COCH2)T; thioether 2-20) [compound 342],C (0.1 or more and less than 0.5)

# Molecular target: T1, Recombinant Human FGFR1 alpha (IIIc) Fc Chimera Protein, CF (R&D systems, 658-FR-050) (human, UniProt P11362 22-376)
# T1 construct: bought reagent; not shown: Fc of the bought chimera
# T1 sequence (looked up): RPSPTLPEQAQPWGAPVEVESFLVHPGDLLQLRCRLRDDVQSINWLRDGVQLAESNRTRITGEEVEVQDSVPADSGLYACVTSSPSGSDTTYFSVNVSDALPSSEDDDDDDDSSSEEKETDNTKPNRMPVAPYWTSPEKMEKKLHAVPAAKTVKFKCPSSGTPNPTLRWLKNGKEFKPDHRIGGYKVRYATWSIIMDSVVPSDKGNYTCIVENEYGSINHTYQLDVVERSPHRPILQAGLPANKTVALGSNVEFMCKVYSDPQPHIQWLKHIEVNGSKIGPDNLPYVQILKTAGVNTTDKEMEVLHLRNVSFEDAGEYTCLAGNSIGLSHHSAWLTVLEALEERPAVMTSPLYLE
# Assay: SPR, FGFR1-Fc immobilized, 10 nmol/L peptide
# Conditions: not given
# Experimental: A CM5 sensor chip (Cytiva, 29149603) was set in Biacore-T200 (manufactured by Cytiva) which is a surface plasmon resonance device, and an HBS-EP buffer (Cytiva, BR100826) was added as a running buffer at a flow rate of 10 μL/min to equilibrate the flow channel. Next, 70 μL of a mixed aqueous solution of 0.2 mol/L 1-(3-dimethylaminopropyl)-3-ethylcarbodiimide (EDC) and 0.05 mol/L N-hydroxysuccinimide (NHS) was added to activate the sensor chip. Then, Recombinant Human FGFR 1 alpha (IIIc) Fc Chimera Protein CF (R&D systems, 658-FR-050) prepared at 50 nmol/L in an Acetate 4.5 buffer (Cytiva, BR100350) was added thereto to perform immobilization at about 5000 RU. Thereafter, the blocking treatment was performed with an ethanolamine solution. In addition, in another flow channel of the same sensor chip, blocking treatment was performed immediately after activation without immobilizing FGFR.
# A cyclic peptide diluted to 10 nmol/L using HBS-EP was added to each flow channel of the FGFR-immobilized sensor chip produced above at 25° C. for 10 minutes, then HBS-EP was allowed to flow as a running buffer for 30 minutes, and the binding of the cyclic peptide to FGFR was measured. Thereafter, a regeneration treatment of removing the bound cyclic peptide was performed by repeating the flow of a regeneration liquid in which sodium chloride powder was dissolved in Glysine 1.5 (Cytiva, BR100354) to a final concentration of 0.15 mol/L for 1 minute in each flow channel twice. The binding amount of the cyclic peptide was evaluated from the difference between the measured value of Biacore-T200 in the flow channel in which FGFR was immobilized and the measured value of Biacore-T200 in the flow channel in which FGFR was not immobilated, in a case where a 10 nmol/L cyclic peptide was allowed to flow.
row,Molecule,"binding amount (SPR, cyclic peptide molecules bound per one molecule of FGFR at 10 nmol/L peptide)"
1,"H[hCys]SYERLQFHGHEAPFRV[Orn]VKKK (bridge 2-19; not fully specified (residue 19, bridges); printed as H-(Hcy)-SYERLQFHGHEAPFRV-(Orn(acetyl))-VKKK, chemically synthesized) [SEQ ID NO: 375]",≥ 0.7 moleculesofthecyclicpeptide/onemoleculeoffgfr
2,"HXSYERLIFHGHEAPFWVXVKKK (not fully specified; Orn(acetyl); Hcy; thioether ring (Orn(acetyl))-(Hcy), chemically synthesized) [SEQ ID NO: 384]",≥ 0.7 moleculesofthecyclicpeptide/onemoleculeoffgfr
3,"HXSYERLIFHGHEAPFWVXVKKK (not fully specified; meL (N-methyl leucine); Orn(acetyl); Hcy; thioether ring (Orn(acetyl))-(Hcy), chemically synthesized) [SEQ ID NO: 387]",≥ 0.7 moleculesofthecyclicpeptide/onemoleculeoffgfr
4,"HKSYERLQFHGHEAPFRV[hCys]VKKK (bridge 2-19; not fully specified (residue 2, bridges); printed as H-(K(acetyl))-SYERLQFHGHEAPFRV-(Hcy)-VKKK, chemically synthesized) [SEQ ID NO: 378]",≥ 0.7 moleculesofthecyclicpeptide/onemoleculeoffgfr
5,"H[Dap]SYERLQFHGHEAPFRV[hCys]VKKK (bridge 2-19; not fully specified (residue 2, bridges); printed as H-(Dap(acetyl))-SYERLQFHGHEAPFRV-(Hcy)-VKKK, chemically synthesized) [SEQ ID NO: 381]",≥ 0.7 moleculesofthecyclicpeptide/onemoleculeoffgfr
6,"HXSYERXIFHGHEAPFWVXVKKK (not fully specified; Hle (homoleucine); Orn(acetyl); Hcy; thioether ring (Orn(acetyl))-(Hcy), chemically synthesized) [SEQ ID NO: 388]",≥ 0.7 moleculesofthecyclicpeptide/onemoleculeoffgfr
7,"HXSYERLIFHGHEAPFWVXKKK (not fully specified; Orn(acetyl); Hcy; thioether ring (Orn(acetyl))-(Hcy), chemically synthesized) [SEQ ID NO: 389]",≥ 0.7 moleculesofthecyclicpeptide/onemoleculeoffgfr
8,"HXSYERLQFHGHEAPFRVXVKKK (not fully specified; Orn(acetyl); Hcy; thioether ring (Orn(acetyl))-(Hcy), chemically synthesized) [SEQ ID NO: 379]",≥ 0.7 moleculesofthecyclicpeptide/onemoleculeoffgfr
9,"H[hCys]SYERLQFHGHEAPFRVKVKKK (bridge 2-19; not fully specified (residue 19, bridges); printed as H-(Hcy)-SYERLQFHGHEAPFRV-(K(acetyl))-VKKK, chemically synthesized) [SEQ ID NO: 374]",≥ 0.7 moleculesofthecyclicpeptide/onemoleculeoffgfr
10,"H[hCys]SYERLQFHGHEAPFRV[Dab]VKKK (bridge 2-19; not fully specified (residue 19, bridges); printed as H-(Hcy)-SYERLQFHGHEAPFRV-(Dab(acetyl))-VKKK, chemically synthesized) [SEQ ID NO: 376]",≥ 0.7 moleculesofthecyclicpeptide/onemoleculeoffgfr
11,"Ac-HASYERLIFHGHEAPFWVCVKKK (bridge N-19; not fully specified; printed as (Ac)-HASYERLIFHGHEAPFWV-(C)-VKKK, chemically synthesized) [SEQ ID NO: 386]",0.5 to 0.7 moleculesofthecyclicpeptide/onemoleculeoffgfr
12,"XSYERLIFHGHEAPFWVXVKKK (not fully specified; Orn(acetyl); Hcy; thioether ring (Orn(acetyl))-(Hcy), chemically synthesized) [SEQ ID NO: 390]",0.1 to 0.5 moleculesofthecyclicpeptide/onemoleculeoffgfr
13,"H[hCys]SYERLQFHGHEAPFRV[Dap]VKKK (bridge 2-19; not fully specified (residue 19, bridges); printed as H-(Hcy)-SYERLQFHGHEAPFRV-(Dap(acetyl))-VKKK, chemically synthesized) [SEQ ID NO: 377]",≥ 0.7 moleculesofthecyclicpeptide/onemoleculeoffgfr
14,"XSYERLIFHGHEAPFWVXKKK (not fully specified; Orn(acetyl); Hcy; thioether ring (Orn(acetyl))-(Hcy), chemically synthesized) [SEQ ID NO: 385]",0.1 to 0.5 moleculesofthecyclicpeptide/onemoleculeoffgfr
15,"H[Dab]SYERLQFHGHEAPFRV[hCys]VKKK (bridge 2-19; not fully specified (residue 2, bridges); printed as H-(Dab(acetyl))-SYERLQFHGHEAPFRV-(Hcy)-VKKK, chemically synthesized) [SEQ ID NO: 380]",≥ 0.7 moleculesofthecyclicpeptide/onemoleculeoffgfr
